Measured values taken from US20240122956A1, “Application of Naringin Combined with Rapamycin in Preparation of Medications for Treating Hyperlipidemia” (AIR FORCE MEDICAL UNIVERSITY, priority 2023, published 2024).

Legend:
[1] = system: oxidized low-density lipoprotein (oxLDL); experiment: drug screening among 200 natural products for neutralizing oxLp: affinity and surface charge, oxLDL; type: binding
Text: (§1) This unregulated process of lipid accumulation and inflammatory reaction, induced by oxLp-NLRP3 complexes, accelerates the progression of hyperlipidemia. Considering the role of oxLp-NLRP3 complexes in the progression of hyperlipidemia, a drug screening technique was employed to search for potential compounds among 200 natural products with the aim of neutralizing oxLp. […] Therefore, naringin was selected for further investigation.

[2] = system: oxidized high-density lipoprotein (oxHDL); experiment: drug screening among 200 natural products for neutralizing oxLp: affinity and surface charge, oxHDL; type: binding
Text: as §1

oxHDL-NLRP3 complexes = experiment: formation of oxHDL-NLRP3 complexes in THP-1 cells (fluorescence imaging); type: cell-based; settings: naringin 100 μM pre-treatment 1 hour, oxHDL 50 μg/mL 3 hours
Description: (§2) Cell Culture and Treatment: THP-1 cells (from American Type Culture Collection, Manassas, Virginia) were cultured in RPMI 1640. They were pre-treated with naringin (Sigma, 91842; 100 μM) for 1 hour, followed by cultivation in serum-free medium containing oxLDL and oxHDL (50 μg/mL) for 3 hours. The culture condition was maintained at 37° C. and with 5% CO2.

THP-1 cells [3] = experiment: IL-1β release in THP-1 cells; type: cell-based; settings: naringin 100 μM pre-treatment 1 hour
Description: as §2
Measurement of IL-1β: IL-1β was measured using a commercially available IL-1β assay kit according to the manufacturer's instructions.

oxLDL-NLRP3 complexes = experiment: formation of oxLDL-NLRP3 complexes in THP-1 cells (fluorescence imaging); type: cell-based; settings: naringin 100 μM pre-treatment 1 hour, oxLDL 50 μg/mL 3 hours
Description: as §2

[4] = system: hyperlipidemia model Ldr1−/− (C57BL/6J) mice; experiment: lipid accumulation / lesions in carotid arteries, aortic roots and liver of hyperlipidemic mice (Oil Red O); type: in vivo; settings: high-fat diet 16 weeks, naringin 20 mg/kg daily intraperitoneal, RAPA 40 mg/kg in diet
Text: To evaluate the synergistic therapeutic effects of naringin and rapamycin on hyperlipidemia mice (FIG. 4), a hyperlipidemia model was established using Ldr1^−/− (C57BL/6J) mice. […] Subsequently, mouse serum, tissues of carotid arteries, liver, and aortic root were collected for analysis. Assessment of Lesions in Carotid Arteries, Aortic Roots, and Liver Tissues: Carotid arteries, hearts, and livers of mice were dissected, fixed overnight with 4% PFA, and carotid arteries were stained with Oil Red O after gently removing adherent (outer membrane) fat and flattening them from the carotid arteries. The stained aortas were placed on anti-fall-off slides, fully unfolded, and images were captured using a high-resolution camera. Hearts and livers were embedded in OCT tissue, and 7-10 μm thick continuous sections were collected. Staining was performed with Oil Red O and hematoxylin and eosin. Stained sections were analyzed using an optical microscope. ImageJ (version 2.10) was used for quantitative analysis of the images. Lesion areas were assessed according to the percentage of Oil Red 0-positive areas in the total sampled area.

THP-1 cells [5] = experiment: intracellular cholesterol accumulation in THP-1 cells; type: cell-based; settings: naringin 100 μM pre-treatment 1 hour
Description: as §2
Measurement of Intracellular Cholesterol: Intracellular cholesterol was determined using a commercially available intracellular cholesterol assay kit according to the manufacturer's instructions.

Structure (SMILES): C[C@@H]1O[C@@H](O[C@H]2[C@H](Oc3cc(O)c4c(c3)O[C@H](c3ccc(O)cc3)CC4=O)O[C@H](CO)[C@@H](O)[C@@H]2O)[C@H](O)[C@H](O)[C@H]1O [naringin]
- neutralizing the negative charge on the surface of oxLDL [1]: capable of neutralizing the negative charge
- affinity for oxLDL ([1]; drug screening): high affinity
- neutralizing the negative charge on the surface of oxHDL [2]: capable of neutralizing the negative charge
- affinity for oxHDL ([2]; drug screening): high affinity
- formation of complexes between oxHDL and NLRP3 (oxHDL-NLRP3 complexes): inhibited the formation of complexes
- oxHDL-induced IL-1β release (THP-1 cells [3]; oxHDL 50 μg/mL 3 hours): reduced
- oxLDL-induced IL-1β release (THP-1 cells [3]; oxLDL 50 μg/mL 3 hours): reduced
- formation of complexes between oxLDL and NLRP3 (oxLDL-NLRP3 complexes): inhibited the formation of complexes
- lipid accumulation in the aortic roots [4]: alleviated lipid accumulation
- lipid accumulation in the carotid arteries [4]: alleviated lipid accumulation
- lipid accumulation in the livers [4]: alleviated lipid accumulation
- oxHDL-induced cholesterol accumulation (THP-1 cells [5]; oxHDL 50 μg/mL 3 hours): reduced
- oxLDL-induced cholesterol accumulation (THP-1 cells [5]; oxLDL 50 μg/mL 3 hours): reduced
